The test system of this test is rat soleus muscle. The format is cell-based. Conditions: 4 h. As for the experimental part: Male Harlan Sprague Dawley rats of approximately 200 g mass were used in order to maintain soleus muscle mass less than 40 mg. The animals were fasted for 4 hours prior to sacrifice by decapitation. The skin was stripped from the lower limb which was then pinned out on cork board. The tendo achilles was cut just above os […]. gastrocnemius reflected out from the posterior aspect of the tibia. M. soleus, a small 15-20 mm long, 0.5 mm thick flat muscle on the bone surface of m. gastrocnemius was then stripped clear and the perimysium cleaned off using fine scissors and forceps. M. soleus was then split into equal parts using a blade passed antero-posteriorly through the belly of the muscle to obtain a total of 4 muscle strips from each animal. […] Methods used to determine the nature and purity of rat and human amylin included quantitative amino acid analysis, gas phase amino acid sequencing, reverse phase HPLC and fast-atom-bombardment mass spectrometry. […] The concentration of human amylin present in the medium at the end of the incubation was determined by radioimmunoassay in surfactant-containing buffer. For both human and rat amylin, the actual mass added to the incubation medium was determined by quantitative amino-acid analysis. […] The remaining glycogen was redissolved in 1 mL water and 4 mL scintillation fluid and counted for ^14C. […]

The source of these data is patent publication EP0586592B1, “INSULIN AND AMYLIN CONTAINING COMPOSITION FOR THE TREATMENT OF INSULIN DEFICIENT MAMMALS” (AMYLIN PHARMACEUTICALS, INC., priority 1991, dated 2000).

Structures are written as SMILES.

A word on the EC50: it is the midpoint of the concentration-response curve. The low end stands for a more potent agent, the high end for a less potent agent.

The compound `CC[C@H](C)[C@H](NC(=O)[C@H](C)NC(=O)CNC(=O)[C@H](Cc1ccccc1)NC(=O)[C@H](CC(N)=O)NC(=O)[C@H](CC(N)=O)NC(=O)[C@H](CO)NC(=O)[C@H](CO)NC(=O)[C@H](Cc1c[nH]cn1)NC(=O)[C@@H](NC(=O)[C@H](CC(C)C)NC(=O)[C@H](Cc1ccccc1)NC(=O)[C@H](CC(N)=O)NC(=O)[C@H](C)NC(=O)[C@H](CC(C)C)NC(=O)[C@H](CCCNC(=N)N)NC(=O)[C@H](CCC(N)=O)NC(=O)[C@@H](NC(=O)[C@H](C)NC(=O)[C@@H]1CSSC[C@H](NC(=O)[C@@H](N)CCCCN)C(=O)N[C@@H](CC(N)=O)C(=O)N[C@@H]([C@@H](C)O)C(=O)N[C@@H](C)C(=O)N[C@@H]([C@@H](C)O)C(=O)N1)[C@@H](C)O)C(C)C)C(=O)N[C@@H](CC(C)C)C(=O)N[C@@H](CO)C(=O)N[C@@H](CO)C(=O)N[C@H](C(=O)N[C@@H](CC(N)=O)C(=O)N[C@H](C(=O)NCC(=O)N[C@@H](CO)C(=O)N[C@@H](CC(N)=O)C(=O)N[C@H](C(=O)N[C@@H](Cc1ccc(O)cc1)C(N)=O)[C@@H](C)O)C(C)C)[C@@H](C)O` [human amylin] returned an EC50 of 0.438 nM.
